Measured values: article PMC4893612 (Scientific Reports, 2016)

Experiments:
Format in all cases: cell-based
USP14 = USP14 (Homo sapiens, UniProt P54578); test: Cellular thermal shift assay (CETSA) in OPM-2 cells; parameters: endogenous in cells; host or cells: OPM-2 multiple myeloma cells; conditions: 1 hour
Procedure: For CETSA, the same amount of cells as one sample was treated with required condition and collected as described. Each sample was suspended in PBS supplemented with protease inhibitors after they were washed in PBS. And then these samples were heated at 51, 53, or 55 °C for 3 min. Immediately after heating, tubes were removed and incubated at room temperature for 3 min, and then snap-frozen in liquid nitrogen. Samples were freeze-thawed twice and centrifuged at 20,000 g for 20 min at +4 °C and supernatants were analysed by Western-blotting.

RPMI8226 = test: MTT antiproliferative assay, RPMI8226; conditions: Homo sapiens, RPMI-8226, 72 hours
Procedure: (§1) Cell viability was monitored by the MTT (3-(4,5-dimethylthiazol-2-yl)-2,5-diphenyltetrazolium bromide) assay. For the MTT assay, cells were suspended at 5 × 10^5 cells/ml, and 100 μl aliquots were dispended into 96-well microtiter plates and exposed to drugs as described using DMSO control. At the end of incubations, 10 μl of a stock solution of 5 mg/ml MTT (3-(4,5-dimethylthiazol-2-yl)-2,5-diphenyltetrazolium bromide), was added into each well, and the plates were incubated 4 hours at 37 °C. Formazan crystals were dissolved with 100 μl of 10% SDS/10 mM HCl solution overnight at 37 °C. Since MTT assays are affected by mitochondrial activity, and since OXPHOS is affected by VLX1570 (unpublished observation), we used the acid phosphatase method[49] to determine cell viability in some experiments. After washing twice with PBS, cells were lysed in 100 μl of 0.1 M sodium acetate, 0,1% Triton X-100, p-nitrophenylphosphate (Pierce Biotechnology Inc, Rockford, IL) and incubated for 90 min at 37 °C. At the end of the incubation, 10 μl NaOH was added to each well and A405 was determined.

OPM-2 = test: MTT antiproliferative assay, OPM-2; conditions: Homo sapiens, 72 hours
Procedure: as §1

OPM-2-BZ^R = test: MTT antiproliferative assay, OPM-2-BZR; conditions: Homo sapiens, OPM-2-BZ^R (bortezomib resistant), 72 hours
Procedure: as §1

KMS-11 = test: MTT antiproliferative assay, KMS-11; conditions: Homo sapiens, 72 hours
Procedure: as §1

Chain of USP14 (P54578 whole entry): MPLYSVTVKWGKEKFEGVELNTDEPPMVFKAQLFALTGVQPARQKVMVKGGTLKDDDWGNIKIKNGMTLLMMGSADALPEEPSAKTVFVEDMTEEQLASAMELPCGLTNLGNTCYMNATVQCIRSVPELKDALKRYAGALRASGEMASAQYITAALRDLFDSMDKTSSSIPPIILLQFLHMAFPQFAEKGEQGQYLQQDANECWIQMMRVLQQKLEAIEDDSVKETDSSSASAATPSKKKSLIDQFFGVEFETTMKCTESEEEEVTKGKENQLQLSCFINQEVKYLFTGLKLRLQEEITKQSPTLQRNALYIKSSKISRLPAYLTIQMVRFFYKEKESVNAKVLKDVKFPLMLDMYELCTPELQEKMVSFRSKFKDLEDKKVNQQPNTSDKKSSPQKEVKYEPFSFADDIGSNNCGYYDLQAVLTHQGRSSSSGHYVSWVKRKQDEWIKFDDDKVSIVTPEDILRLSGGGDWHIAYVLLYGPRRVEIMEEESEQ

Structure (SMILES)	thermostabilization of USP14 (USP14; 5 μM)	IC50 (RPMI8226) [nM]	IC50 (OPM-2) [nM]	IC50 (OPM-2-BZ^R) [nM]	thermostabilization of USP14 (USP14; 1 μM)	IC50 (KMS-11) [nM]
CCC[C@H](NC(=O)/C(C#N)=C/c1cccc(Br)n1)c1ccccc1 [WP1130, reference compound]	induced thermostabilization	–	–	–	–	–
C=CC(=O)N1C/C(=C\c2ccc([N+](=O)[O-])cc2)C(=O)/C(=C/c2ccc([N+](=O)[O-])cc2)C1 [b-AP15]	–	150 ± 14	160 ± 3	268 ± 12	induced thermostabilization	83 ± 3
CC(C)C[C@H](NC(=O)[C@H](Cc1ccccc1)NC(=O)c1cnccn1)B(O)O [bortezomib]	–	84 ± 5	32 ± 1	204 ± 10	–	67 ± 3
